# Reference: patent publication US20260262643A1, “HERBICIDAL BENZOXAZINES” (FMC CORPORATION, priority 2022, published 2026)
# Legend:
# soybean [1] = test: Test C preemergence; assay type: in vivo, Glycine max
# Procedure, shortened: (§1)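 Seeds in loam–sand blend received preemergence directed soil spray of test chemicals in non-phytotoxic solvent with surfactant; postemergence treatment was applied at one- to two-leaf stage (2–10 cm). After 10 days in greenhouse, injury rated visually versus untreated controls, 0 (no effect) to 100 (complete control).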
# green foxtail [2] = test: Test C postemergence; assay type: in vivo, Setaria viridis; conditions: 10 days, 0 to 100 scale (0 no effect, 100 complete control)
# Procedure, shortened: as §1
# pigweed, palmer [3] = test: Test C postemergence; assay type: in vivo, Amaranthus palmeri; conditions: 10 days, 0 to 100 scale (0 no effect, 100 complete control)
# Procedure, shortened: as §1
# ryegrass, Italian [4] = test: Test C preemergence; assay type: in vivo, Lolium multiflorum
# Procedure, shortened: as §1
# sedge, umbrella = test: Test D flooded paddy test; assay type: in vivo, Cyperus difformis; conditions: 250 g ai/ha, applied to paddy water, visual rating after 13 to 14 days, scale 0 to 100 (0 no effect, 100 complete control)
# Procedure, shortened: (§2)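 Seedlings reached the 2-leaf stage, then pots were flooded to 3 cm over the soil surface. Compound was applied into the water, depth was maintained, and plants stayed in the greenhouse 13 to 14 days before visual scoring (0–100) relative to controls.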
# corn [5] = test: Test C preemergence; assay type: in vivo, Zea mays
# Procedure, shortened: as §1
# blackgrass [6] = test: Test C postemergence; assay type: in vivo, Alopecurus myosuroides; conditions: 10 days, 0 to 100 scale (0 no effect, 100 complete control)
# Procedure, shortened: as §1
# green foxtail [7] = test: Test C preemergence; assay type: in vivo, Setaria viridis
# Procedure, shortened: as §1
# oat, wild [8] = test: Test C postemergence; assay type: in vivo, Avena fatua; conditions: 10 days, 0 to 100 scale (0 no effect, 100 complete control)
# Procedure, shortened: as §1
# blackgrass [9] = test: Test C preemergence; assay type: in vivo, Alopecurus myosuroides
# Procedure, shortened: as §1
# ragweed [10] = test: Test C preemergence; assay type: in vivo, Ambrosia artemisiifolia
# Procedure, shortened: as §1
# rice = test: Test D flooded paddy test; assay type: in vivo, Oryza sativa; conditions: 250 g ai/ha, applied to paddy water, visual rating after 13 to 14 days, scale 0 to 100 (0 no effect, 100 complete control)
# Procedure, shortened: as §2
# barnyardgrass [11] = test: Test C postemergence; assay type: in vivo, Echinochloa crusgalli; conditions: 10 days, 0 to 100 scale (0 no effect, 100 complete control)
# Procedure, shortened: as §1
# oat, wild [12] = test: Test C preemergence; assay type: in vivo, Avena fatua
# Procedure, shortened: as §1
# ryegrass, Italian [13] = test: Test C postemergence; assay type: in vivo, Lolium multiflorum; conditions: Postemergence, 125 g ai/ha; 0 to 100 scale (0 no effect, 100 complete control), 10 days
# Procedure, shortened: as §1
# kochia [14] = test: Test C preemergence; assay type: in vivo, Bassia scoparia
# Procedure, shortened: as §1
# corn [15] = test: Test C postemergence; assay type: in vivo, Zea mays; conditions: 10 days, 0 to 100 scale (0 no effect, 100 complete control)
# Procedure, shortened: as §1
# wheat [16] = test: Test C postemergence; assay type: in vivo, Triticum aestivum; conditions: Postemergence, 125 g ai/ha; 0 to 100 scale (0 no effect, 100 complete control), 10 days
# Procedure, shortened: as §1
# barnyardgrass [17] = test: Test C preemergence; assay type: in vivo, Echinochloa crusgalli
# Procedure, shortened: as §1
# soybean [18] = test: Test C postemergence; assay type: in vivo, Glycine max; conditions: Postemergence, 125 g ai/ha; 0 to 100 scale (0 no effect, 100 complete control), 10 days
# Procedure, shortened: as §1
# pigweed, palmer [19] = test: Test C preemergence; assay type: in vivo, Amaranthus palmeri
# Procedure, shortened: as §1
# ducksalad = test: Test D flooded paddy test; assay type: in vivo, Heteranthera limosa; conditions: 250 g ai/ha, applied to paddy water, visual rating after 13 to 14 days, scale 0 to 100 (0 no effect, 100 complete control)
# Procedure, shortened: as §2
# wheat [20] = test: Test C preemergence; assay type: in vivo, Triticum aestivum
# Procedure, shortened: as §1
# galium = test: Test C postemergence; assay type: in vivo, Galium aparine; conditions: 10 days, 0 to 100 scale (0 no effect, 100 complete control)
# Procedure, shortened: as §1
# barnyardgrass [21] = test: Test D flooded paddy test; assay type: in vivo, Echinochloa crus-galli; conditions: 250 g ai/ha, applied to paddy water, visual rating after 13 to 14 days, scale 0 to 100 (0 no effect, 100 complete control)
# Procedure, shortened: as §2
# ragweed [22] = test: Test C postemergence; assay type: in vivo, Ambrosia artemisiifolia; conditions: Postemergence, 125 g ai/ha; 0 to 100 scale (0 no effect, 100 complete control), 10 days
# Procedure, shortened: as §1
# horseweed = test: Test C postemergence; assay type: in vivo, Erigeron canadensis; conditions: 10 days, 0 to 100 scale (0 no effect, 100 complete control)
# Procedure, shortened: as §1
# kochia [23] = test: Test C postemergence; assay type: in vivo, Bassia scoparia; conditions: 10 days, 0 to 100 scale (0 no effect, 100 complete control)
# Procedure, shortened: as §1
# [24] = 500 g ai/ha, preemergence, 0 to 100 scale (0 no effect, 100 complete control)
# [25] = Preemergence, 125 g ai/ha, 0 to 100 scale, 0 no effect, 100 complete control
structure (smiles),measurement,setting,value
COC[C@H]1CN(C(=O)c2cc(-n3cnc(C(C)C)n3)cc3c2OCCO3)c2cccc(Cl)c2O1 [Compound 395],Soybean plant response rating,soybean [1]; [24],100
same,"Plant response rating, Soybean",soybean [1]; [25],70
same,"Plant response rating, Foxtail, Green","green foxtail [2]; 500 g ai/ha, postemergence",80
same,"Plant response rating, Foxtail, Green","green foxtail [2]; Postemergence, 125 g ai/ha",70
same,"Plant response rating, Pigweed, Palmer","pigweed, palmer [3]; 500 g ai/ha, postemergence",100
same,"Plant response rating, Pigweed, Palmer","pigweed, palmer [3]; Postemergence, 125 g ai/ha",90
same,"Ryegrass, Italian plant response rating","ryegrass, Italian [4]; [24]",90
same,"Plant response rating, Ryegrass, Italian","ryegrass, Italian [4]; [25]",80
same,"Plant response rating, Sedge, Umbrella (Flood)","sedge, umbrella",0
same,Corn plant response rating,corn [5]; [24],50
same,"Plant response rating, Corn",corn [5]; [25],30
same,"Plant response rating, Blackgrass","blackgrass [6]; 500 g ai/ha, postemergence",90
same,"Plant response rating, Blackgrass","blackgrass [6]; Postemergence, 125 g ai/ha",40
same,"Foxtail, Green plant response rating",green foxtail [7]; [24],100
same,"Plant response rating, Foxtail, Green",green foxtail [7]; [25],100
same,"Plant response rating, Oat, Wild","oat, wild [8]; 500 g ai/ha, postemergence",60
same,"Plant response rating, Oat, Wild","oat, wild [8]; Postemergence, 125 g ai/ha",50
same,Blackgrass plant response rating,blackgrass [9]; [24],90
same,"Plant response rating, Blackgrass",blackgrass [9]; [25],50
same,Ragweed plant response rating,ragweed [10]; [24],90
same,"Plant response rating, Ragweed",ragweed [10]; [25],90
same,"Plant response rating, Rice (Flood)",rice,0
same,"Plant response rating, Barnyardgrass","barnyardgrass [11]; 500 g ai/ha, postemergence",70
same,"Plant response rating, Barnyardgrass","barnyardgrass [11]; Postemergence, 125 g ai/ha",40
same,"Oat, Wild plant response rating","oat, wild [12]; [24]",90
same,"Plant response rating, Oat, Wild","oat, wild [12]; [25]",50
same,"Plant response rating, Ryegrass, Italian","ryegrass, Italian [13]",60
same,Kochia plant response rating,kochia [14]; [24],100
same,"Plant response rating, Kochia",kochia [14]; [25],100
same,"Plant response rating, Corn","corn [15]; 500 g ai/ha, postemergence",90
same,"Plant response rating, Corn","corn [15]; Postemergence, 125 g ai/ha",70
same,"Plant response rating, Wheat",wheat [16],40
same,Barnyardgrass plant response rating,barnyardgrass [17]; [24],100
same,"Plant response rating, Barnyardgrass",barnyardgrass [17]; [25],80
same,"Plant response rating, Soybean",soybean [18],100
same,"Pigweed, Palmer plant response rating","pigweed, palmer [19]; [24]",100
same,"Plant response rating, Pigweed, Palmer","pigweed, palmer [19]; [25]",100
same,"Plant response rating, Ducksalad (Flood)",ducksalad,0
same,Wheat plant response rating,wheat [20]; [24],80
same,"Plant response rating, Wheat",wheat [20]; [25],30
same,"Plant response rating, Galium","galium; 500 g ai/ha, postemergence",100
same,"Plant response rating, Galium","galium; Postemergence, 125 g ai/ha",100
same,"Plant response rating, Barnyardgrass (Flood)",barnyardgrass [21],0
same,"Plant response rating, Ragweed",ragweed [22],70
same,"Plant response rating, Horseweed","horseweed; 500 g ai/ha, postemergence",60
same,"Plant response rating, Horseweed","horseweed; Postemergence, 125 g ai/ha",50
same,"Plant response rating, Kochia","kochia [23]; 500 g ai/ha, postemergence",100
same,"Plant response rating, Kochia","kochia [23]; Postemergence, 125 g ai/ha",90
